This is an account of results in patent US8367622B2, “Sulfated C-glycoside, method for isolating same and method for synthesizing same” (Shizuoka Prefecture Public University Corporation, priority 2009, dated 2013).

“Also recorded” adds a separate entry of the source. Like-named read-outs stand apart in the source and are kept apart here.

Series [1] has as its system atopic disease model induced by 2,4-dinitro-fluorobenzene. The settings on record: cited from earlier work; for activity in atopic disease model: oral administration, ingredients isolated from oolong tea.
For series [2], the system named is intestinal polyp formation induced by azoxymethane (AOM). To be noted: 2.5 mg/kg, same dosage as indomethacin; cited from earlier work.
A short description of series [3]: Liquid-liquid partition with water and n-BuOH. Type of series: physicochemical. To be noted: qualitative. The method, then: 1 g of oolong tea leaves prepared from Shizu 7132 was ground and was subjected to extract with MeOH, 50%-MeOH and water (1 ml) under reflux. After concentrating, drying and solidifying the extract liquid under reduced pressure, it was suspended in water (0.4 ml) and then was extracted with n-BuOH (4 ml and 1 ml). All of the extracts, their aqueous fractions and n-BuOH fractions obtained by liquid-liquid partition thereof were heated at 160° C. for 40 minutes.
(§1) In the result, the production of chafurosides A and B by heating was detected only in all of the extracts and their aqueous fractions.

A short description of another series: Water solubility. In kind it is physicochemical.
Text: Considering the fact that sulfation has been correlated with mechanism of detoxification elimination in metabolism, the presence of precursors of chafuroside which are sulfated derivatives in tea leaves has great significance. As for isovitexin and vitexin, their anticancer effect, effect of reducing damages by UV irradiation, inhibiting effect of COX, antioxidant effect, antianxiety effect and the like have been drawing the attention recently.
as §1

`O=c1cc(-c2ccc(O)cc2)oc2cc3c(c(O)c12)[C@@H]1O[C@H](CO)[C@@H](O)[C@H](O)[C@@H]1O3` [chafuroside A]: the dermal inflammation-inhibiting activity result in series [1] (10 μg/kg, comparable with Prednisolone (10 mg/kg) and Betamethasone (0.8 mg/kg)) was “significant dermal inflammation-inhibiting activity”. Moreover, the “activity in atopic disease model” value in series [1] is reported as “exhibiting activities via oral administration”. The “inhibiting activity against intestinal polyp formation” value in series [2] was “effectively-inhibiting activity”.
As for `O=c1cc(-c2ccc(O)cc2)oc2c3c(cc(O)c12)O[C@H]1[C@@H](O)[C@H](O)[C@@H](CO)O[C@@H]31` [chafuroside B], the “activity in atopic disease model” value in series [1] is given as “exhibiting activities via oral administration”.
`O=c1cc(-c2ccc(O)cc2)oc2cc(O)c([C@@H]3O[C@H](CO)[C@@H](O)[C@H](O)[C@H]3O)c(O)c12` [isovitexin]: the “fraction after liquid-liquid partition water / n-butanol” value in series [3] was “move to the n-butanol solvent fraction”; in series [3] (listed as Isovitexin), “move to n-BuOH fractions”. The solubility in water entry in the series “Water solubility” (qualitative) was “very poorly soluble in water”.
In the case of `O=c1cc(-c2ccc(O)cc2)oc2cc(O)c([C@@H]3O[C@H](CO)[C@@H](O)[C@H](O)[C@H]3OS(=O)(=O)O)c(O)c12` [prechafuroside A, isovitexin 2″-O-sulfate], the solubility in water result in the series “Water solubility” is on record as “high water solubility”.
Same read-out and setting: for `O=c1cc(-c2ccc(O)cc2)oc2c([C@@H]3O[C@H](CO)[C@@H](O)[C@H](O)[C@H]3OS(=O)(=O)O)c(O)cc(O)c12` [prechafuroside B, vitexin 2″-O-sulfate] the value was “high water solubility”.
As for `O=c1cc(-c2ccc(O)cc2)oc2c([C@@H]3O[C@H](CO)[C@@H](O)[C@H](O)[C@H]3O)c(O)cc(O)c12` [vitexin], in series [3], the “fraction after liquid-liquid partition water / n-butanol” value is on record as “move to n-BuOH fractions; also recorded: move to the n-butanol solvent fraction”. Moreover, the solubility in water result in the series “Water solubility” (qualitative) is listed as “very poorly soluble in water”.
